Measured values: patent US7960375B2, “8-chloro-2,3-benzodiazepine derivatives” (priority 2003, dated 2011)

Columns and labels:
mice [1] = assay: Permanent focal cerebral ischemia in mice; format: in vivo; conditions: for Neuroprotective effect (necrotic brain surface area): 30 min after surgery, male NMRI mice, *p < 0.05; for dose that statistically significantly decreased the necrotic surface area: permanent focal ischemia, mice
Description: Permanent Focal Cerebral Ischemia in Mice
In these experiments a modified method of Karkoutly et al. (1990) was used. Male NMRI mice weighing 30-35 g were anaesthetized with 2,2,2-tribromoethanol at 500 mg/kg (20 ml/kg) administered i.p. The surgical procedure was performed according to Welsh et al. (1987). After drilling a hole into the skull the distal branch of the middle cerebral artery was electrocoagulated. Test compounds were administered i.p. 30 min after surgery. Two days later the animals were deeply anaesthetized with sodium pentobarbital (120 mg/kg i.p.). The brain was perfused through the left ventricle of the heart with a 4% solution of 2,3,5-triphenyltetrazolium chloride (TTC). One hour later the animals were decapitated, the brains were removed and placed into ice-cold saline for a few min. Then the brains were fixed in 8% formalin solution for 24 hours. The necrotic (non-stained with TTC) brain surface area was measured by means of an image analyser computer system (DigiCell for Windows 4.0). Statistical significance was assessed using ANOVA followed by Duncan's test.

mice [2] = assay: Maximal electroshock (MES) test in mice; format: in vivo; conditions: male NMRI mice, electroshock 30 min after ip. treatment
Description: Maximal Electroshock (MES) Test in Mice
The experiments were performed according to Swinyard et al. (1952). Male NMRI mice weighing 20 to 25 g were treated intraperitoneally with the test compounds administered in a volume of 10 ml/kg. […] The number of animals showing positive reaction was counted in each group. The dose of test substance causing 50% (ED50) inhibition was calculated according to the method of Litchfield and Wilcoxon (1949).
MES=maximal electroshock (in mice): electroshock of sufficient current intensity applied through corneal electrodes to mice causes tonic extensor convulsion of the hind legs.

[3] = Study of toxic effects in rats (body weight gain); format: in vivo; conditions: female Wistar rats, 15 mg/kg/day orally for 7 days; mean ± standard error of the mean; control 17.4 ± 1.4
Description: Study of Toxic Effects in Rats
The study was performed in female Wistar rats. On the day preceding the first treatment all animals were weighed and randomly allocated into treatment groups (10 animals/group). The test compounds were suspended in 0.4% hydroxymethyl cellulose solution (Methocell F4 M, Daw Chemical Company, USA) and were administered orally once a day for 7 days. The dose of non-chiral compounds according to the examples 8 and 9 was 15 mg/kg/day.
Animals of the control group were treated with the vehicle. The weight of the animals was registered every day. Weight gain was the difference between body weights on the first day and last day of the experiment. Toxicity of the test compounds was shown as a decrease in body weight or negative weight gain.
BWG=body weight gain: the difference between body weights on the first and last days of the experiment given as mean ± standard error of the mean.

Work on `CC(=O)N1N=C(c2ccc(N)c(C)c2)c2cc(Cl)ccc2C=C1C` yielded a melting point of 209 to 211 °C.

`CCC(=O)N1N=C(c2ccc(N)c(C)c2)c2cc(Cl)ccc2C=C1C` showed a melting point of 218 to 221 °C.

With `CC(=O)N1N=C(c2ccc(N)cc2)c2cc3c(cc2C=C1C)OCO3` [7-acetyl-5-(4-aminophenyl)-8-methyl-7H-1,3-dioxolo-[4,5-h][2,3]-benzodiazepine, reference compound] the “Neuroprotective effect (necrotic brain surface area)” value (from here on “Neuroprotective effect”) (mice [1]; dose 1.0 mg/kg ip.) was −1, the “Neuroprotective effect” value (mice [1]; dose 3.0 mg/kg ip.) was −14 and the “Neuroprotective effect” value (mice [1]; dose 10.0 mg/kg ip.) was −21*. The “dose that statistically significantly decreased the necrotic surface area” value (mice [1]) was 10 mg/kg i.p.

In the case of `CNC(=O)N1N=C(c2ccc(N)c(C)c2)c2cc(Cl)ccc2C=C1C` [Example 8, 1-(4-Amino-3-methylphenyl)-8-chloro-4-methyl-3H-2,3-benzodiazepine-3-carboxylic acid methyl amide], the “MES, ED50” value (mice [2]) is reported as 4.1 mg/kg ip, the melting point is reported as 210 to 212 °C and the “BWG (body weight gain)” value [3] is reported as 9.9 ± 3.1 g. For the same compound, the “Neuroprotective effect” value (mice [1]; dose 0.1 mg/kg ip.) was −5, the “Neuroprotective effect” value (mice [1]; dose 0.3 mg/kg ip.) was −17* and the “Neuroprotective effect” value (mice [1]; dose 1.0 mg/kg ip.) was −17*. The “Neuroprotective effect” value (mice [1]; dose 3.0 mg/kg ip.) was −15*, the “Neuroprotective effect” value (mice [1]; dose 10.0 mg/kg ip.) was −22* and the “dose that statistically significantly decreased the necrotic surface area” value (mice [1]) was 0.3 mg/kg i.p.

For `CC1=Cc2ccc(Cl)cc2C(c2ccc(N)c(C)c2)=NN1C(=O)NC1CC1` [Example 9, 1-(4-Amino-3-methylphenyl)-8-chloro-4-methyl-3H-2,3-benzodiazepine-3-carboxylic acid cyclopropyl amide], the “MES, ED50” value (mice [2]) was 2.2 mg/kg ip, the melting point was 233 to 236 °C and the “BWG (body weight gain)” value [3] was 17.7 ± 1.3 g.
